Literature values, collected in patent publication US10912848B2, “Dual-purpose PAT/ultrasound contrast agent bound with nanoparticles containing drug and method for preparing same” (IMGT CO, LTD., priority 2014, dated 2021).
Read-outs that look alike come from different tables or passages of the source.

Conditions: 25° C.

Structure (SMILES): CC(=O)Oc1ccccc1C(=O)O [aspirin]
- volume of solvent required to dissolve 1 g of drug (H2O): 300 mL
- volume of solvent required to dissolve 1 g of drug (ethanol): 5 mL
